Values quoted from earlier work in patent US20110212474A1, “ABNORMAL ALTERATIONS OF PKC ISOZYMES PROCESSING IN ALZHEIMER'S DISEASE PERIPHERAL CELLS” (BLANCHETTE ROCKEFELLER NEUROSCIENCES INSTITUTE, priority 2009, published 2011).

Experiments:
[1] = system: Aβ (1-42); settings: transgenic mice with human AD genes
[2] = system: PKC; settings: postischemic/hypoxic treatment
[3] = system: PKC-α; settings: non-AD (AC) fibroblasts, nanomolar concentrations of Aβ (1-40)
[4] = system: PKC-γ; settings: AD fibroblasts, Aβ (1-40)

| Compound | effect on Aβ (1-42) levels in the brains [1] | effect on ischemia-induced deficits in synaptogenesis, neurotrophic activity, and spatial learning and memory [2] | decrease in PKC-α immunoreactivity [3] [%] | reduction of PKC-γ immunoreactivity [4] [%] |
| --- | --- | --- | --- | --- |
| CCC/C=C/C=C/C(=O)O[C@H]1/C(=C/C(=O)OC)C[C@H]2C[C@H]([C@@H](C)O)OC(=O)C[C@H](O)C[C@@H]3C[C@H](OC(C)=O)C(C)(C)[C@](O)(C[C@@H]4C/C(=C/C(=O)OC)C[C@H](/C=C/C(C)(C)[C@]1(O)O2)O4)O3 [bryostatin-1] | reduce Aβ (1-42) levels | effectively rescued ischemia-induced deficits | – | – |
| Aβ (1-40): Aβ peptide, "short form," 40 amino acids in length, from Amyloid Precursor Protein | – | – | 75 | 70 |
